Measured values reported in patent US20250185656A1, “PIPERIDINONE DERIVATIVE OR SALT THEREOF, HARMFUL ORGANISM CONTROL AGENT CONTAINING SAID COMPOUND, AND METHOD FOR USING SAME” (ADEKA Corporation, priority 2022, published 2025).

What was measured:
[1] = test system: L-1 stage larvae of Dirofilaria immitis; assay: Evaluation test of influence on the movement of Dirofilaria immitis larvae; details: 72 h, read-out: corrected movement inhibition rate
[2] = test system: Plutella xylostella; assay: Insecticidal test against Plutella xylostella; details: in Brassica rapa, 144 h, read-out: corrected mortality, rating of assessment
Source text: Insecticidal Test Against Plutella xylostella
Six days after the immersion in the drug solution, the number of surviving insects was examined. […] In triplicate using 10 per plot.

[3] = test system: Frankliniella occidentalis; assay: Insecticidal test against Frankliniella occidentalis; details: in Phaseolus vulgaris, 96 h, read-out: corrected mortality, rating of assessment
Source text: Insecticidal Test Against Frankliniella occidentalis
Female adults of Frankliniella occidentalis were inoculated onto Phaseolus vulgaris leaf pieces, and after allowing them to lay eggs for one day, the female adults were removed. […] Four days after the treatment, the number of surviving larvae of this species was examined. […] In duplicate.

| Structure (SMILES) | inhibition at 50 ppm [1] | mortality at 500 ppm [2] | mortality at 500 ppm [3] |
| --- | --- | --- | --- |
| CC(C)(C)OC(=O)N1CC(=O)C(C(=O)Nc2ccc(F)cc2)=C(O)C1 [Compound 1-36, tertiary-butyl 4-((4-fluorophenyl)carbamoyl)-5-hydroxy-3-oxo-3,6-dihydropyridine-1 (2H)-carboxylate] | ≥ 50% | 100% | 100% |
| O=C1CN(c2ncc(Br)cn2)CC(O)=C1C(=O)Nc1ccc(F)cc1 [Compound 1-65, 1-(5-bromopyrimidin-2-yl)-N-(4-fluorophenyl)-5-hydroxy-3-oxo-1,2,3,6-tetrahydropyridine-4-carboxamide] | – | 100% | 100% |
| N#Cc1ccc(N2CC(O)=C(C(=O)Nc3ccc(F)cc3)C(=O)O2)cc1 [Compound 3-1, 2-(4-cyanophenyl)-N-(4-fluorophenyl)-4-hydroxy-6-oxo-3,6-dihydro-2H-1,2-oxazin-5-carboxamide] | – | 100% | – |
| CC(C)(C)OC(=O)N1CC(=O)C(C(=S)Nc2ccc(Cl)cc2)=C(O)C1 [Compound 2-13, tertiary-butyl 4-((4-chlorophenyl)carbamothioyl)-5-hydroxy-3-oxo-3,6-dihydropyridine-1 (2H)-carboxylate] | – | 100% | – |
